According to ChEMBL document CHEMBL4507290 (2021):

Key:
[1] = test system: Tyrosine-protein kinase ABL1 (Homo sapiens), P00519 [Y253F]; conditions: Compound concentration 1000.0 nM
[2] = biological target: Activin receptor type-1B (Homo sapiens) (UniProt P36896); conditions: Compound concentration 1000.0 nM
[3] = biological target: Aurora kinase A (Homo sapiens) (UniProt O14965); conditions: Compound concentration 1000.0 nM
[4] = biological target: Serine/threonine-protein kinase BRSK1 (Homo sapiens) (UniProt Q8TDC3); conditions: Compound concentration 1000.0 nM
[5] = biological target: Cyclin-dependent kinase 4 (Homo sapiens) (UniProt P11802); conditions: Compound concentration 1000.0 nM
[6] = biological target: Cyclin-dependent kinase 8 (Homo sapiens) (UniProt P49336); conditions: Compound concentration 1000.0 nM
[7] = biological target: Cyclin-dependent kinase-like 1 (Homo sapiens) (UniProt Q00532); conditions: Compound concentration 1000.0 nM
[8] = biological target: Casein kinase I isoform gamma-1 (Homo sapiens) (UniProt Q9HCP0); conditions: Compound concentration 1000.0 nM
[9] = biological target: Death-associated protein kinase 3 (Homo sapiens) (UniProt O43293); conditions: Compound concentration 1000.0 nM
[10] = test system: Epidermal growth factor receptor (Homo sapiens), P00533 [UNDEFINED MUTATION]; conditions: Compound concentration 1000.0 nM
[11] = test system: Epidermal growth factor receptor (Homo sapiens), P00533 [G719C]; conditions: Compound concentration 1000.0 nM
[12] = test system: Epidermal growth factor receptor (Homo sapiens), P00533 [UNDEFINED MUTATION]; conditions: Compound concentration 1000.0 nM; remark: listed apart in the source
[13] = test system: Epidermal growth factor receptor (Homo sapiens), P00533 [UNDEFINED MUTATION]; conditions: Compound concentration 1000.0 nM; remark: listed apart in the source
[14] = biological target: Ephrin type-A receptor 8 (Homo sapiens) (UniProt P29322); conditions: Compound concentration 1000.0 nM
[15] = biological target: Ephrin type-B receptor 1 (Homo sapiens) (UniProt P54762); conditions: Compound concentration 1000.0 nM
[16] = biological target: Mitogen-activated protein kinase 1 (Homo sapiens) (UniProt P28482); conditions: Compound concentration 1000.0 nM
[17] = biological target: Receptor-type tyrosine-protein kinase FLT3 (Homo sapiens) (UniProt P36888); conditions: Compound concentration 1000.0 nM
[18] = test system: Receptor-type tyrosine-protein kinase FLT3 (Homo sapiens), P36888 [D835H]; conditions: Compound concentration 1000.0 nM
[19] = biological target: Vascular endothelial growth factor receptor 3 (Homo sapiens) (UniProt P35916); conditions: Compound concentration 1000.0 nM
[20] = biological target: Glycogen synthase kinase-3 beta (Homo sapiens) (UniProt P49841); conditions: Compound concentration 1000.0 nM
[21] = biological target: Serine/threonine-protein kinase LATS2 (Homo sapiens) (UniProt Q9NRM7); conditions: Compound concentration 1000.0 nM
[22] = biological target: Mitogen-activated protein kinase kinase kinase 4 (Homo sapiens) (UniProt Q9Y6R4); conditions: Compound concentration 1000.0 nM
[23] = biological target: Serine/threonine-protein kinase MRCK alpha (Homo sapiens) (UniProt Q5VT25); conditions: Compound concentration 1000.0 nM
[24] = biological target: Myosin-IIIa (Homo sapiens) (UniProt Q8NEV4); conditions: Compound concentration 1000.0 nM
[25] = biological target: Serine/threonine-protein kinase Nek6 (Homo sapiens) (UniProt Q9HC98); conditions: Compound concentration 1000.0 nM
[26] = biological target: Cyclin-dependent kinase 17 (Homo sapiens) (UniProt Q00537); conditions: Compound concentration 1000.0 nM
[27] = test system: Phosphatidylinositol 4,5-bisphosphate 3-kinase catalytic subunit alpha isoform (Homo sapiens), P42336 [C420R]; conditions: Compound concentration 1000.0 nM
[28] = biological target: Phosphatidylinositol 4-kinase beta (Homo sapiens) (UniProt Q9UBF8); conditions: Compound concentration 1000.0 nM
[29] = biological target: Serine/threonine-protein kinase PLK2 (Homo sapiens) (UniProt Q9NYY3); conditions: Compound concentration 1000.0 nM
[30] = biological target: Serine/threonine-protein kinase D1 (Homo sapiens) (UniProt Q15139); conditions: Compound concentration 1000.0 nM
[31] = biological target: Serine/threonine-protein kinase D2 (Homo sapiens) (UniProt Q9BZL6); conditions: Compound concentration 1000.0 nM
[32] = biological target: Protein-tyrosine kinase 2-beta (Homo sapiens) (UniProt Q14289); conditions: Compound concentration 1000.0 nM
[33] = biological target: Proto-oncogene tyrosine-protein kinase receptor Ret (Homo sapiens) (UniProt P07949); conditions: Compound concentration 1000.0 nM
[34] = biological target: Receptor-interacting serine/threonine-protein kinase 4 (Homo sapiens) (UniProt P57078); conditions: Compound concentration 1000.0 nM
[35] = biological target: Dual serine/threonine and tyrosine protein kinase (Homo sapiens) (UniProt Q6XUX3); conditions: Compound concentration 1000.0 nM
[36] = biological target: Ribosomal protein S6 kinase alpha-5 (Homo sapiens) (UniProt O75582); conditions: Compound concentration 1000.0 nM
[37] = biological target: Ribosomal protein S6 kinase alpha-6 (Homo sapiens) (UniProt Q9UK32); conditions: Compound concentration 1000.0 nM
[38] = biological target: Uncharacterized serine/threonine-protein kinase SBK3 (Homo sapiens) (UniProt P0C264); conditions: Compound concentration 1000.0 nM
[39] = biological target: Serine/threonine-protein kinase SIK1 (Homo sapiens) (UniProt P57059); conditions: Compound concentration 1000.0 nM
[40] = biological target: SRSF protein kinase 3 (Homo sapiens) (UniProt Q9UPE1); conditions: Compound concentration 1000.0 nM
[41] = biological target: Serine/threonine-protein kinase TAO2 (Homo sapiens) (UniProt Q9UL54); conditions: Compound concentration 1000.0 nM
[42] = biological target: Testis-specific serine/threonine-protein kinase 3 (Homo sapiens) (UniProt Q96PN8); conditions: Compound concentration 1000.0 nM
[43] = biological target: 5-hydroxytryptamine receptor 1E (Homo sapiens) (UniProt P28566); conditions: Compound concentration 10.0 uM
[44] = biological target: Muscarinic acetylcholine receptor M5 (Homo sapiens) (UniProt P08912); conditions: Compound concentration 10.0 uM
[45] = biological target: Sigma intracellular receptor 2 (Homo sapiens) (UniProt Q5BJF2); conditions: Compound concentration 10.0 uM

Sequence of Ephrin type-A receptor 8 (Homo sapiens) (P29322 whole entry): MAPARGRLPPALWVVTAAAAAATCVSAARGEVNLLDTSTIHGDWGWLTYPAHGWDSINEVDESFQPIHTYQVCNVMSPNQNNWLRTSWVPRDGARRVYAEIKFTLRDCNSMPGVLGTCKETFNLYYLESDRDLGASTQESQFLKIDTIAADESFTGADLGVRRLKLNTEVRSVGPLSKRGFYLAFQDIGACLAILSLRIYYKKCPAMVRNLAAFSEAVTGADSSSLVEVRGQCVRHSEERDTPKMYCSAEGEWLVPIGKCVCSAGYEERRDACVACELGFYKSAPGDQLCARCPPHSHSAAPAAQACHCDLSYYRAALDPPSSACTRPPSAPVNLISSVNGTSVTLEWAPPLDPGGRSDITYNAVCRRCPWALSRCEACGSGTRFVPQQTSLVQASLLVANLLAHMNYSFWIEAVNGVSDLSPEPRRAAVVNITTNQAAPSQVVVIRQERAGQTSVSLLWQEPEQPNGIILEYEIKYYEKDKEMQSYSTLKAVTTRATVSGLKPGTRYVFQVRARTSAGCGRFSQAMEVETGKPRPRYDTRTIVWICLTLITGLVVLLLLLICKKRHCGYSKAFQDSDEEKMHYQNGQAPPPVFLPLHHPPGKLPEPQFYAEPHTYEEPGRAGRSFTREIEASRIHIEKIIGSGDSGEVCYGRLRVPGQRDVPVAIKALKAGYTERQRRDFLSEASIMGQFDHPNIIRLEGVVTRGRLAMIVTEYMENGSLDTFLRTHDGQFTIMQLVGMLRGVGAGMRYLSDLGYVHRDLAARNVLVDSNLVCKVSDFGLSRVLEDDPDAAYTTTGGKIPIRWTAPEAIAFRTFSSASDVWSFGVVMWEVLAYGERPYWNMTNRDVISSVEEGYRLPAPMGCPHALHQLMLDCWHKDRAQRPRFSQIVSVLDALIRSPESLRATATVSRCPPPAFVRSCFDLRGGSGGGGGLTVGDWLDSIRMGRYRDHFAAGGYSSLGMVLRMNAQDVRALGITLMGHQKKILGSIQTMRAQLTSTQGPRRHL
Sequence of Serine/threonine-protein kinase Nek6 (Homo sapiens) (Q9HC98 whole entry): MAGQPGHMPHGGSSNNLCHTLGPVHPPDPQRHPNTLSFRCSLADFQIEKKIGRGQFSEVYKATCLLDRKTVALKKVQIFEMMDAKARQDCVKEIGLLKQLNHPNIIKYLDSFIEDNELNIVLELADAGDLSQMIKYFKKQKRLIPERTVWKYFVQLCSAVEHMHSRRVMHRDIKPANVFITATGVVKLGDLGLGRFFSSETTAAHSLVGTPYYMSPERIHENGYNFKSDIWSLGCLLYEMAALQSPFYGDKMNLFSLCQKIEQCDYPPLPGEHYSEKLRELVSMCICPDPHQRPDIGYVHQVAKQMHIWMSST
Sequence of Activin receptor type-1B (Homo sapiens) (P36896 whole entry): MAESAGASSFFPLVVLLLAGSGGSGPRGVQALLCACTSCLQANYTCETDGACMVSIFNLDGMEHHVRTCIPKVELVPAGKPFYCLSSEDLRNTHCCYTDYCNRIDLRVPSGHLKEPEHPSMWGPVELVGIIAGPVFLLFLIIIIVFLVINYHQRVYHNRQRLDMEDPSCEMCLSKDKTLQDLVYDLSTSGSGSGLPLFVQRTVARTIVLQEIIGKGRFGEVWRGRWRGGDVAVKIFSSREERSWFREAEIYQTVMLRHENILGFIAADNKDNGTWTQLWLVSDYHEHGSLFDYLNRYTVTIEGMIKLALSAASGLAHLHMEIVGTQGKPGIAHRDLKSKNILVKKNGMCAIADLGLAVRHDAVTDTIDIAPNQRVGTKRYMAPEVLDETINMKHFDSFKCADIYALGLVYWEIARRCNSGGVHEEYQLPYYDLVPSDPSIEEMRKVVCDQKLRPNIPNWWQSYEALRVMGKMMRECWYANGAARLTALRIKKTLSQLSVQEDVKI
Sequence of Vascular endothelial growth factor receptor 3 (Homo sapiens) (P35916 whole entry): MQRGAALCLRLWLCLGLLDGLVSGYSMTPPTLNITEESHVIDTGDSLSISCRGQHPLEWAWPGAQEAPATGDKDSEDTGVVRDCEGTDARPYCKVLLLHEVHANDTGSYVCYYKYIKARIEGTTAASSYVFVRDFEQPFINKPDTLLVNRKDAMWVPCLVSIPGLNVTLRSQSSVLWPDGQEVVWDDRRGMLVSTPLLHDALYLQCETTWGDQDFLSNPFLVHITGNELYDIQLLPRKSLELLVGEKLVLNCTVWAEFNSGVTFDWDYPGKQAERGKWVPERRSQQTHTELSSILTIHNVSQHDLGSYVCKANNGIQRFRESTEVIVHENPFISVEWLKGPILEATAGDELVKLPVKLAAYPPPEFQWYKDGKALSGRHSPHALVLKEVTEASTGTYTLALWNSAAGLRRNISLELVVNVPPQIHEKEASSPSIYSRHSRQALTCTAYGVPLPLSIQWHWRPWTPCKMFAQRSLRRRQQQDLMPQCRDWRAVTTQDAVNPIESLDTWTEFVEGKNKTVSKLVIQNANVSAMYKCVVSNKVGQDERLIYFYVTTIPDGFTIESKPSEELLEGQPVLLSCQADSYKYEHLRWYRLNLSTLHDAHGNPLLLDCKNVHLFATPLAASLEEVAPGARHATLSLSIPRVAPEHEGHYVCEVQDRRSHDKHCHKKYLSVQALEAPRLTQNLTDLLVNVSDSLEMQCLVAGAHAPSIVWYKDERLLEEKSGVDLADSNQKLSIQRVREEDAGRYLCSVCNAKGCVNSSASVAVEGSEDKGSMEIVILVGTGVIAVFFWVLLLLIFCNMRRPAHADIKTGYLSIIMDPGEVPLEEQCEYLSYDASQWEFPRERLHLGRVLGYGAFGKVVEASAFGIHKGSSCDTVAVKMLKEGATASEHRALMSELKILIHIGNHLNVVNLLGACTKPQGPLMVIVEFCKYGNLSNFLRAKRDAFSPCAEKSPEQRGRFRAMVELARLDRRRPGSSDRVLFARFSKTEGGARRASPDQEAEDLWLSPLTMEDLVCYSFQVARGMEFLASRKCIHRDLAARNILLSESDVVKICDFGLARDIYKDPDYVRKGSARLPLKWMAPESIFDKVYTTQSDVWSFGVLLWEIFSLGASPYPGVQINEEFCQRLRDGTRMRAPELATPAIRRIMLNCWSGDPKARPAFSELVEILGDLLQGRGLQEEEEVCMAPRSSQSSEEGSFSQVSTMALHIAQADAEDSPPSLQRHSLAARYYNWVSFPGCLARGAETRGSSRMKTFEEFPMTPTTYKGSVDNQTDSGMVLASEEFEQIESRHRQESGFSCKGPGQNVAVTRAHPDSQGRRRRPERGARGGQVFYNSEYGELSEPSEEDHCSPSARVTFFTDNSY
Sequence of Ribosomal protein S6 kinase alpha-5 (Homo sapiens) (O75582 whole entry, looked up): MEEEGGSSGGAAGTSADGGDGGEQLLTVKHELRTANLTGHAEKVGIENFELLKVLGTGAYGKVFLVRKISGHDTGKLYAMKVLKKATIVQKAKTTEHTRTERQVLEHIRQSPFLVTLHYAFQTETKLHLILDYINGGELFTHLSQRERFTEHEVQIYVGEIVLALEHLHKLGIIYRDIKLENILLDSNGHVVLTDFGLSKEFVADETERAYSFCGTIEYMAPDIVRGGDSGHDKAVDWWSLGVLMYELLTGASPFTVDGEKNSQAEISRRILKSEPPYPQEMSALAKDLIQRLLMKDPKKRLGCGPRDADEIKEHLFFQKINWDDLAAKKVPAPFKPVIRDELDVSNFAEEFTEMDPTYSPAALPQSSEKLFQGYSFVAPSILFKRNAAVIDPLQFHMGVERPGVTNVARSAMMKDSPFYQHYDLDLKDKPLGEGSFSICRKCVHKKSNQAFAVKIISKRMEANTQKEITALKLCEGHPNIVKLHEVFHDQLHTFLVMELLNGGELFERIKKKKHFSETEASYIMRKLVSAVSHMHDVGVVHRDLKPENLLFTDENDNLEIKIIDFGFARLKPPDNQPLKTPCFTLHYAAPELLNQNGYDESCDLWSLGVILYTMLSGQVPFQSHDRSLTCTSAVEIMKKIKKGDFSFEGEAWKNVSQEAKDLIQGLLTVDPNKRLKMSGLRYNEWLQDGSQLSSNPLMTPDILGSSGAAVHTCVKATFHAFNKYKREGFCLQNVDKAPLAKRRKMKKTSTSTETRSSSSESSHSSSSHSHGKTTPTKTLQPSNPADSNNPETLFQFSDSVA
Sequence of Cyclin-dependent kinase-like 1 (Homo sapiens) (Q00532 whole entry, canonical isoform): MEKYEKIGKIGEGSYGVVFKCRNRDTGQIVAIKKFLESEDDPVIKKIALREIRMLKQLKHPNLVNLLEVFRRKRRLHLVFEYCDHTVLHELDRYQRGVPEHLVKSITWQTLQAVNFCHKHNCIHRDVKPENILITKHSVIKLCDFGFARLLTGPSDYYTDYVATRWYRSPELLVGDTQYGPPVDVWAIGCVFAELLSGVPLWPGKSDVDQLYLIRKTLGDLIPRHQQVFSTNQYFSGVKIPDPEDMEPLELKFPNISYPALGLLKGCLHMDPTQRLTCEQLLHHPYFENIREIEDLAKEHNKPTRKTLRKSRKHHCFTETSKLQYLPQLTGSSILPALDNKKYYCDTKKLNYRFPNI
Sequence of Cyclin-dependent kinase 4 (Homo sapiens) (P11802 whole entry): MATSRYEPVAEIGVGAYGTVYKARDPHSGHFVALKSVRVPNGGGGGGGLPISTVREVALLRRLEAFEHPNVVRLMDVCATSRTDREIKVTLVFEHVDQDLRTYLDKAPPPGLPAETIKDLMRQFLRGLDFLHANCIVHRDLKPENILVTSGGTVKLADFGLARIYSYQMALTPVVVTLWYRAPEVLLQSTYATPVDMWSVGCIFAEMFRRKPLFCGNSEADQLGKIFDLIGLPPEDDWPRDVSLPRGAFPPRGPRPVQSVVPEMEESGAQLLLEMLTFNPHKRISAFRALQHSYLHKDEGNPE
Sequence of Uncharacterized serine/threonine-protein kinase SBK3 (Homo sapiens) (P0C264 whole entry): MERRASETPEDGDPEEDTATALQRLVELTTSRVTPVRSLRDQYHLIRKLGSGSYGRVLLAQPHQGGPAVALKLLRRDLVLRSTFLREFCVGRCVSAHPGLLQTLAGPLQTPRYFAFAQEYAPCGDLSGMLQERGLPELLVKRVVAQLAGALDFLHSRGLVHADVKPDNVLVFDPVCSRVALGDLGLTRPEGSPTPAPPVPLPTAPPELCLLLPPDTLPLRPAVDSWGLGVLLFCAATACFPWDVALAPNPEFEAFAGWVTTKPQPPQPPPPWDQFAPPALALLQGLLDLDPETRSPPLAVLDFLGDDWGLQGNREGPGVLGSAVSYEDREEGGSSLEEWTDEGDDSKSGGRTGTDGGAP

What does the source list for `CN([C@@H]1CCc2c(CC(=O)O)c3ccccc3n2C1)S(=O)(=O)c1ccc(F)cc1` [MK-7246]?
residual activity [1]: 100%; residual activity [2]: 96%; residual activity [3]: 100%; residual activity [4]: 100%; residual activity [5]: 87%; residual activity [6]: 100%; residual activity [7]: 100%; residual activity [8]: 100%; residual activity [9]: 87%; residual activity [10]: 100%; residual activity [11]: 100%; residual activity [12]: 100%; residual activity [13]: 100%; residual activity [14]: 100%; residual activity [15]: 100%; residual activity [16]: 97%; residual activity [17]: 100%; residual activity [18]: 91%; residual activity [19]: 95%; residual activity [20]: 93%; residual activity [21]: 100%; residual activity [22]: 87%; residual activity [23]: 100%; residual activity [24]: 100%; residual activity [25]: 99%; residual activity [26]: 100%; residual activity [27]: 100%; residual activity [28]: 100%; residual activity [29]: 92%; residual activity [30]: 100%; residual activity [31]: 100%; residual activity [32]: 100%; residual activity [33]: 100%; residual activity [34]: 85%; residual activity [35]: 82%; residual activity [36]: 79%; residual activity [37]: 100%; residual activity [38]: 100%; residual activity [39]: 71%; residual activity [40]: 100%; residual activity [41]: 82%; residual activity [42]: 100%; inhibition [43]: 35.8%; inhibition [44]: 6.97%; inhibition [45]: -9.73%

With `CN([C@@H]1CCc2c(CC(=O)O)c3cc(S(C)(=O)=O)ccc3n2C1)S(=O)(=O)c1ccc(F)cc1` as the compound, how does the residual activity [1] read?
Its residual activity is 82%.

And the residual activity [2]?
Its residual activity is 99%.

What about the residual activity [3] of the same compound?
Its residual activity is 100%.

And the residual activity [4]?
Its residual activity is 94%.

And the residual activity [5]?
Its residual activity is 90%.

And the residual activity [6]?
Its residual activity is 100%.

What about the residual activity [7] of the same compound?
Its residual activity is 100%.

And the residual activity [8]?
The residual activity was 91%.

What about the residual activity [9] of the same compound?
The residual activity was 97%.

And the residual activity [10]?
The residual activity was 82%.

And the residual activity [11]?
The residual activity was 98%.

What about the residual activity [12] of the same compound?
The residual activity was 90%.

And the residual activity [13]?
Its residual activity is 100%.

And the residual activity [14]?
The residual activity was 98%.

And the residual activity [15]?
Its residual activity is 100%.

And the residual activity [16]?
Its residual activity is 77%.

And the residual activity [17]?
Its residual activity is 100%.

What about the residual activity [18] of the same compound?
The residual activity was 76%.

And the residual activity [19]?
The residual activity was 100%.

What about the residual activity [20] of the same compound?
The residual activity was 85%.

And the residual activity [21]?
The residual activity was 88%.

And the residual activity [22]?
The residual activity was 79%.

What about the residual activity [23] of the same compound?
Its residual activity is 100%.

And the residual activity [24]?
Its residual activity is 100%.

And the residual activity [25]?
The residual activity was 84%.

And the residual activity [26]?
Its residual activity is 100%.

What about the residual activity [27] of the same compound?
Its residual activity is 98%.

And the residual activity [28]?
The residual activity was 98%.

What about the residual activity [29] of the same compound?
The residual activity was 90%.

What about the residual activity [30] of the same compound?
Its residual activity is 75%.

What about the residual activity [31] of the same compound?
The residual activity was 100%.

And the residual activity [32]?
The residual activity was 100%.

What about the residual activity [33] of the same compound?
The residual activity was 100%.

What about the residual activity [34] of the same compound?
The residual activity was 75%.

And the residual activity [35]?
The residual activity was 77%.

And the residual activity [36]?
Its residual activity is 71%.

What about the residual activity [37] of the same compound?
Its residual activity is 71%.

What about the residual activity [38] of the same compound?
Its residual activity is 49%.

And the residual activity [39]?
Its residual activity is 87%.

What about the residual activity [40] of the same compound?
Its residual activity is 100%.

What about the residual activity [41] of the same compound?
The residual activity was 100%.

And the residual activity [42]?
The residual activity was 100%.

What about the inhibition [43] of the same compound?
Its inhibition is 5.5%.

What about the inhibition [44] of the same compound?
Its inhibition is -6.18%.

What about the inhibition [45] of the same compound?
Its inhibition is -9.3%.
